Measured values taken from patent US20100286226A1, “COMBINATION THERAPY RELATED TO SEROTONIN DUAL ACTION COMPOUNDS” (H. LUNDBECK A/S, priority 2007, published 2010).

What was measured:
[1] = tested on: dorsal raphe 5-HT neurons; assay: Inhibitory effect on the firing activity of dorsal raphe 5-HT neurons (extracellular unitary recordings, anesthetized rats); assay type: in vivo, rat
Procedure: The experiments were carried out in male Sprague-Dawley rats (Harlan, Gannat, FRANCE) weighing 250 to 300 g at the day of the experiment and which have been kept under standard laboratory conditions (12:12 light-dark cycle with free access to food and water). The animals were anesthetized with chloral hydrate (400 mg/kg, i.p.). Supplemental doses were given to maintain constant anesthesia and to prevent any nociceptive reaction to a tail pinch.
Extracellular unitary recordings of dorsal raphe 5-HT neurons were performed with single-barreled glass micropipettes preloaded with fiberglass filaments in order to facilitate filling. The tip was broken back to 2 to 4 μm and filled with a 2M NaCl solution saturated with Blue Chicago dye. The rats (control or treated) were placed in a stereotaxic frame and a burr hole was drilled on the midline 1 mm anterior to lambda. Dorsal raphe 5-HT neurons were encountered over a distance of 1 mm starting immediately below the ventral border of the Sylvius aqueduct. These neurons were identified using the criteria of Aghajanian (Aghajanian, G. K., Essays Neurochem Neuropharmacol 2000, 3: 1-32): a slow (0.5-2.5 Hz) and regular firing rate and long-duration (0.8-1.2 ms) positive action potentials.
To determine putative synergistic effect of Compound II (2-(6-Fluoro-1H-indol-3-ylsulfanyl)-benzyl]-methyl-amine) on the inhibitory action of 5-HTP (25 mg/kg, i.v.) on the firing activity of dorsal raphe 5-HT neurons, a dose of Compound II corresponding to 20-30% of inhibition, was injected prior to and after the administration of 5-HTP.
Statistical analysis was performed with SigmaStat for Window version 4.0 software (Jandel Corporation). Average was the mean±SEM. Significance was considered for p<0.05.

serotonin transporter = molecular target: T1, serotonin transporter (Rattus norvegicus, UniProt P31652); assay: Inhibition of 3H-serotonin uptake in rat brain synaptosomes; assay type: biochemical; conditions: 3H-5-HT 10 nM, read-out: uptake inhibitory potency (IC50)
T1 construct: The P2 fraction (synaptosomal fraction) was obtained by centrifugation; from tissue; host or cells: Male Wistar rat brain (minus cerebellum), P2 synaptosomal fraction
Procedure: In order to test compounds at the primary, high-affinity binding site of the serotonin transporter, i.e. determine if a compound is a serotonin reuptake inhibitor, inhibition of the uptake of serotonin (5-HT) was determined.
By the following method, the inhibition of the uptake of ^3H-serotonin (^3H-5-HT) (10 nM) in rat brain synaptosomes by test compounds was determined in vitro. Exemplary methods, and also results of serotonin uptake for specific SRIs, is described in Hyttel, J., Psychopharmacology 1978, 60:13-18; Hyttel, J., Prog. Neuro-Psychopharmacol. & Biol. Psychait. 1982, 6:277-295; Hyttel, J. & Larsen, Acta Pharmacol. Tox. 1985, 56(suppl. 1):146-153; Sanchez, C. and Hyttel, J. European J. Pharm. […]
To 400 μl of the synaptosomal suspension (5 mg original tissue) on ice, 100 μl test compound in water was added. […] After shaking for 1 h and storage for 2 h in the dark, the content of radioactivity was determined by liquid scintillation counting (cpm). Uptake was obtained by subtracting the non-specific binding and passive transport measured in the presence of 10 μM […]. The measured cpm was plotted against test compound concentration, and the best fitting s-shaped curve was drawn. The uptake inhibitory potencies are expressed as IC50 values in nM (logarithmic means). Two full concentration-response curves were measured using five concentrations of test compound in triplicate.

allosteric site of SERT = allosteric site of SERT (Homo sapiens, UniProt P31645); assay: Dissociation binding studies (3H-escitalopram), allosteric modulation of the serotonin transporter
Procedure: Whether a compound operates through an allosteric mechanism can be determined by in vitro dissociation experiments. Dissociation binding experiments measure the “off rate” (koff) for a radioligand of the protein. After radioligand and transporter protein are allowed to bind (i.e. form a complex), then ligand is added to block further binding of radioligand to the transporter so that the rate of dissociation can be measured. Binding (as measured by radioactivity of the radioligand:transporter complex) is measured at various times to determine the rate at which the radioligand dissociates from the transporter. Dissociation rate constants can be used to determine the half-life of the bound complex. Half-life determinations can be used to ascertain whether a compound is an allosteric modulator of the human SERT.

[2] = molecular target: norepinephrine transporter (NET) (Homo sapiens, UniProt P23975); assay: In vitro reuptake inhibitory potency at the norepinephrine transporter; assay type: biochemical
ultrasonic vocalization = conditions: rat, cited from earlier work
[3] = molecular target: human serotonin transporter expressed in COS-1 cell membranes (Homo sapiens, UniProt P31645); conditions: cited from earlier work
[4] = tested on: isolation-induced aggression; conditions: mouse, with subeffective dose of L; cited from earlier work

Chain of norepinephrine transporter (NET) (P23975 whole entry, species assumed): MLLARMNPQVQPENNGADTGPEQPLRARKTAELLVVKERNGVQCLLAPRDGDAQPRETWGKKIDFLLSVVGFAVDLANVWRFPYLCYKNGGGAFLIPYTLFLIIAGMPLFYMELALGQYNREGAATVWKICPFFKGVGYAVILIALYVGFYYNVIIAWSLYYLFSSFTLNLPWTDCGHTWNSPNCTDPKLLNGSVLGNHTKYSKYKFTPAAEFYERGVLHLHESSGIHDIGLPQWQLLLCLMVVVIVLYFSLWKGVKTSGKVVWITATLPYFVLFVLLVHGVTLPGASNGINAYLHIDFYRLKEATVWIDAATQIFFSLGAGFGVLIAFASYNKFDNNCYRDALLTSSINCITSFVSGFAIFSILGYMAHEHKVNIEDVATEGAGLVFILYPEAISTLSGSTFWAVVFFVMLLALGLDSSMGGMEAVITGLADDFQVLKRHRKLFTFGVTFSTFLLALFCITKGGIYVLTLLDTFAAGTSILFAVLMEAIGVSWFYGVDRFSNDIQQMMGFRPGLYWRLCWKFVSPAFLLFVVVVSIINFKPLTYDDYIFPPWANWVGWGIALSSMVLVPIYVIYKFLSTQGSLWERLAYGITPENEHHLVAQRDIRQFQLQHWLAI
T1 sequence (P31652 whole entry): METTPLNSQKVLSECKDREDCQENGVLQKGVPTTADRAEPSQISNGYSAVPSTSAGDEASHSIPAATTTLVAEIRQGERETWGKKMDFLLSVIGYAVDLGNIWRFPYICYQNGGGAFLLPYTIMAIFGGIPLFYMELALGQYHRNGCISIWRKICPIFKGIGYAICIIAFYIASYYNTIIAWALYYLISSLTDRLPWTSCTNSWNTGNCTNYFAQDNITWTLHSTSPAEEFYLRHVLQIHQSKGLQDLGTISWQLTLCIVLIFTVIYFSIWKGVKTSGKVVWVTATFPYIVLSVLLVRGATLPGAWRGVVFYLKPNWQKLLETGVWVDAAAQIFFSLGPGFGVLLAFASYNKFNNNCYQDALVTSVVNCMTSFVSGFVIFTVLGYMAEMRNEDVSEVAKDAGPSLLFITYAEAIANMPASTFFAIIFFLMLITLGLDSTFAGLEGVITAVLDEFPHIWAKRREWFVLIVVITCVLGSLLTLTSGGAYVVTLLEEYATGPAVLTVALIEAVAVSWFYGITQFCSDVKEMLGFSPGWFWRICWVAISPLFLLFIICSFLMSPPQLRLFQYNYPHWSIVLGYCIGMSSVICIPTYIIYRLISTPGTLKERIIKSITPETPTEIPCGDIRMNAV
Chain of allosteric site of SERT (P31645 whole entry): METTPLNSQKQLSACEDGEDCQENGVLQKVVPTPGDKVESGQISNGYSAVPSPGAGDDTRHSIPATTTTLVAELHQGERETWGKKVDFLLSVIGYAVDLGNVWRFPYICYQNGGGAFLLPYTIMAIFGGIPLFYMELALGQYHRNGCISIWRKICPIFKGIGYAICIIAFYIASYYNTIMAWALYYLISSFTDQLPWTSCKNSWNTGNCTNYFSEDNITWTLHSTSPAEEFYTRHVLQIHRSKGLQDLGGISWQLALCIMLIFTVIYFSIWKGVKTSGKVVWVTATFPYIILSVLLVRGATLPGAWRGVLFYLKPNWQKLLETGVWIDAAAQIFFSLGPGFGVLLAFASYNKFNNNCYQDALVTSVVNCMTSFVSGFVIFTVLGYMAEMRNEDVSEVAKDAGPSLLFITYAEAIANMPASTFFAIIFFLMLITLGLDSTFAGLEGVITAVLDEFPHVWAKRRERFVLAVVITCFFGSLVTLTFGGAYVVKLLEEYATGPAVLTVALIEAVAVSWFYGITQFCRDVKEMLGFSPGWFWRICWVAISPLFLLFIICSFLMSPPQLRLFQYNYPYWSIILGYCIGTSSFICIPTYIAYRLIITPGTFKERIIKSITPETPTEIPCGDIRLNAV
Chain of human serotonin transporter expressed in COS-1 cell membranes (P31645 whole entry): as above

NC(Cc1c[nH]c2ccc(O)cc12)C(=O)O (stereo not drawn) [Compound 5-HTP, 2-amino-3-(5-hydroxy-1H-indol-3-yl)-propanoic acid]
reduction of dorsal raphe 5-HT neuron firing ([1]; 5-HTP 25 mg/kg i.v. alone (first injection), six rats, mean±SEM): 13.4±2.26%
further decrease of firing ([1]; 5-HTP 25 mg/kg injected after Compound II 0.025 mg/kg, six rats): 70.53±2.76%

CNCc1ccccc1Sc1c[nH]c2cc(F)ccc12 [Compound II]
IC50 (serotonin transporter): 0.35 nM
effect on dissociation rate of 3H-escitalopram (allosteric site of SERT): significantly slowed
further decrease of firing ([1]; Compound II 0.025 mg/kg as second injection after 5-HTP 25 mg/kg, six rats): 82.43±2.78%
inhibition at 0.025 mg/kg ([1]; Rattus norvegicus, Neuron, Compound II 0.025 mg/kg alone (first injection), six rats, mean±SEM): 24.1 ± 4.98%
inhibitory effect at NET (in vitro reuptake inhibitory potency) [2]: exerts an inhibitory effect

CN(C)CCC[C@]1(c2ccc(F)cc2)OCc2cc(C#N)ccc21 [R-citalopram]
ultrasonic vocalization compared to controls (ultrasonic vocalization; concomitant treatment): significant increase

COc1ccccc1N1CCN(CCN(C(=O)C2CCCCC2)c2ccccn2)CC1 [WAY-100635]
effect on spontaneous firing rate of the neuron ([1]; administered after Compound II and 5-HTP): increases the spontaneous firing rate

CNCC[C@H](Oc1cccc2ccccc12)c1cccs1 [duloxetine]
stabilizing effect on radioligand:human serotonin transporter complex (dissociation from primary site) [3]: little or no stabilizing effect

CN(C)CCC[C@@]1(c2ccc(F)cc2)OCc2cc(C#N)ccc21 [escitalopram]
anxiolytic response to co-treatment with L, 5-HTP (ultrasonic vocalization; co-treatment with L, 5-HTP): markedly enhanced

Fc1ccc([C@@H]2CCNC[C@H]2COc2ccc3c(c2)OCO3)cc1 [paroxetine]
antiaggressive effect on co-administration of a subeffective dose of L, 5-HTP [4]: greatly potentiated
